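Grown in 96-well plates, cells were treated for 48 hours with each compound at five concentrations. Insufficient inhibition: endpoint recorded as highest concentration tested. GI50: concentration for 50% inhibition of growth.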 Active and inactive are the calls of the source. Cut-off read from the data, not from the text of the source: active = GI50 up to about 1.1 µM and inactive = higher.
What was measured:
Experiment in all cases: growth of human tumour cells (NCI), 48 h
A498 = tested on: A498
CAKI-1 = tested on: CAKI-1
CCRF-CEM = tested on: CCRF-CEM
DLD-1 = tested on: DLD-1
DMS-273 = tested on: DMS-273
EKVX = tested on: EKVX
HCC 2998 = tested on: HCC 2998
HCT-15 = tested on: HCT-15
HL-60 = tested on: HL-60
HOP-62 = tested on: HOP-62
HT-29 = tested on: HT-29
K562 = tested on: K562
KM12 = tested on: KM12
LOX IMVI = tested on: LOX IMVI
MCF7 = tested on: MCF7
MOLT-4 = tested on: MOLT-4
Malme-3M = tested on: Malme-3M
NCI-H23 = tested on: NCI-H23
NCI-H460 = tested on: NCI-H460
NCI-H522 = tested on: NCI-H522
OVCAR-3 = tested on: OVCAR-3
OVCAR-5 = tested on: OVCAR-5
RPMI-8226 = tested on: RPMI-8226
RXF 393 = tested on: RXF 393
SF-268 = tested on: SF-268
SF-295 = tested on: SF-295
SF-539 = tested on: SF-539
SK-MEL-28 = tested on: SK-MEL-28
SK-MEL-2 = tested on: SK-MEL-2
SK-MEL-5 = tested on: SK-MEL-5
SN12C = tested on: SN12C
SNB-19 = tested on: SNB-19
SNB-75 = tested on: SNB-75
SW-620 = tested on: SW-620
U-251 = tested on: U-251
UACC-257 = tested on: UACC-257
786-0 = tested on: 786-0
A549 = tested on: A549
ACHN = tested on: ACHN
BT-549 = tested on: BT-549
COLO 205 = tested on: COLO 205
DU-145 = tested on: DU-145
HCT-116 = tested on: HCT-116
HOP-92 = tested on: HOP-92
Hs-578T = tested on: Hs-578T
IGROV-1 = tested on: IGROV-1
M14 = tested on: M14
MDA-MB-231 = tested on: MDA-MB-231
MDA-MB-435 = tested on: MDA-MB-435
MDA-N = tested on: MDA-N
NCI-H226 = tested on: NCI-H226
NCI/ADR-RES = tested on: NCI/ADR-RES
OVCAR-4 = tested on: OVCAR-4
OVCAR-8 = tested on: OVCAR-8
PC-3 = tested on: PC-3
SK-OV-3 = tested on: SK-OV-3
SR = tested on: SR
T47D = tested on: T47D
TK-10 = tested on: TK-10
UACC-62 = tested on: UACC-62
UO-31 = tested on: UO-31

Measured: GI50

CCN(CC)CC[n+]1ccc2c(C)c3[nH]c4ccccc4c3c(C)c2c1
inactive: A498 5.19 µM | DLD-1 1.67 µM | OVCAR-5 1.14 µM | RXF 393 2.09 µM
active: CAKI-1 1.11 µM | CCRF-CEM 0.219 µM | DMS-273 0.315 µM | EKVX 0.982 µM | HCC 2998 0.319 µM | HL-60 0.31 µM | HOP-62 0.953 µM | HT-29 0.518 µM | K562 0.182 µM | KM12 0.385 µM | LOX IMVI 0.399 µM | MCF7 0.678 µM | MOLT-4 0.182 µM | Malme-3M 0.583 µM | NCI-H23 0.292 µM | NCI-H460 0.451 µM | NCI-H522 0.211 µM | OVCAR-3 0.213 µM | RPMI-8226 0.644 µM | SF-268 0.222 µM | SF-295 0.701 µM | SF-539 0.413 µM | SK-MEL-28 0.352 µM | SK-MEL-2 0.465 µM | SK-MEL-5 0.337 µM | SN12C 0.222 µM | SNB-19 0.17 µM | SNB-75 0.251 µM | SW-620 0.445 µM | U-251 0.173 µM | UACC-257 0.565 µM
16.3 µM: HCT-15

Cc1ccc(NC(=O)CSc2nc(O)nc3[nH]cnc23)cc1
inactive: 786-0 44.6 µM | A498 28.2 µM | A549 > 100 µM | ACHN > 100 µM | BT-549 54.5 µM | CAKI-1 > 100 µM | CCRF-CEM 27.7 µM | COLO 205 > 100 µM | DU-145 > 100 µM | EKVX > 100 µM | HCC 2998 > 100 µM | HCT-116 > 100 µM | HL-60 > 100 µM | HOP-62 48.5 µM | HOP-92 > 100 µM | HT-29 > 100 µM | Hs-578T 68.9 µM | IGROV-1 > 100 µM | K562 > 100 µM | KM12 > 100 µM | LOX IMVI 35.6 µM | M14 > 100 µM | MCF7 45.2 µM | MDA-MB-231 > 100 µM | MDA-MB-435 53.8 µM | MDA-N 90.2 µM | MOLT-4 58.7 µM | Malme-3M > 100 µM | NCI-H226 33.8 µM | NCI-H23 > 100 µM | NCI-H460 > 100 µM | NCI-H522 > 100 µM | NCI/ADR-RES 80.2 µM | OVCAR-3 > 100 µM | OVCAR-4 > 100 µM | OVCAR-5 49.7 µM | OVCAR-8 > 100 µM | PC-3 97.5 µM | RPMI-8226 50.5 µM | RXF 393 > 100 µM | SF-268 48.5 µM | SF-295 62.7 µM | SF-539 24 µM | SK-MEL-28 > 100 µM | SK-MEL-2 > 100 µM | SK-MEL-5 86.9 µM | SK-OV-3 > 100 µM | SN12C 30.5 µM | SNB-19 68.7 µM | SNB-75 > 100 µM | SR 35.6 µM | SW-620 66.2 µM | T47D > 100 µM | TK-10 > 100 µM | U-251 41.1 µM | UACC-257 > 100 µM | UACC-62 > 100 µM | UO-31 > 100 µM
> 100 µM: HCT-15

COC(=O)C1([C@@H]2C[C@@H](O)[C@]3(C)CC/C=C(\C)CCC[C@H](C)[C@H](O)[C@@H]2O3)CC1
34.9 µM: HCT-15
inactive: 786-0 92.3 µM | A498 > 100 µM | A549 33.9 µM | ACHN 24.8 µM | BT-549 53.7 µM | CAKI-1 > 100 µM | CCRF-CEM > 100 µM | COLO 205 57 µM | DU-145 66.8 µM | EKVX 81.7 µM | HCC 2998 63.1 µM | HCT-116 51.2 µM | HL-60 > 100 µM | HOP-62 76.4 µM | HOP-92 96.4 µM | HT-29 42.5 µM | Hs-578T 63.2 µM | IGROV-1 37.3 µM | K562 34.8 µM | KM12 60.4 µM | LOX IMVI 61.4 µM | M14 53.3 µM | MCF7 41.9 µM | MDA-MB-231 90.2 µM | MDA-MB-435 77.6 µM | MDA-N 72.3 µM | MOLT-4 26.5 µM | Malme-3M > 100 µM | NCI-H226 27.2 µM | NCI-H23 50.4 µM | NCI-H460 32.7 µM | NCI-H522 38.5 µM | NCI/ADR-RES 39.4 µM | OVCAR-3 51.4 µM | OVCAR-4 45.9 µM | OVCAR-5 80.5 µM | OVCAR-8 88.9 µM | PC-3 31.8 µM | RPMI-8226 50.7 µM | RXF 393 52 µM | SF-268 64.7 µM | SF-295 43.1 µM | SF-539 91 µM | SK-MEL-28 > 100 µM | SK-MEL-2 73.3 µM | SK-MEL-5 39.4 µM | SK-OV-3 > 100 µM | SN12C > 100 µM | SNB-19 46.7 µM | SR 39.4 µM | SW-620 95.9 µM | T47D 46.6 µM | TK-10 57.7 µM | U-251 71.9 µM | UACC-257 56.1 µM | UACC-62 66.8 µM | UO-31 23.8 µM
active: SNB-75 0.286 µM

CN(C)CCNc1ccc2c(=O)n(CCN(C)C)c(=O)n3c4ccc(O)cc4c(=O)c1c23
0.045 µM: HCT-15
active: 786-0 < 0.01 µM | A498 0.0611 µM | A549 < 0.01 µM | ACHN < 0.01 µM | BT-549 0.292 µM | CAKI-1 < 0.01 µM | CCRF-CEM < 0.01 µM | COLO 205 0.0327 µM | DU-145 < 0.01 µM | EKVX 0.183 µM | HCC 2998 < 0.01 µM | HCT-116 < 0.01 µM | HL-60 < 0.01 µM | HOP-62 < 0.01 µM | HOP-92 < 0.01 µM | HT-29 < 0.01 µM | Hs-578T 0.161 µM | IGROV-1 0.0144 µM | K562 < 0.01 µM | KM12 0.122 µM | LOX IMVI < 0.0105 µM | M14 < 0.034 µM | MCF7 < 0.01 µM | MDA-MB-231 < 0.0395 µM | MDA-MB-435 0.0711 µM | MDA-N 0.0356 µM | MOLT-4 < 0.01 µM | Malme-3M 0.0569 µM | NCI-H226 < 0.01 µM | NCI-H23 < 0.01 µM | NCI-H460 < 0.01 µM | NCI-H522 < 0.01 µM | NCI/ADR-RES 0.546 µM | OVCAR-3 0.105 µM | OVCAR-4 0.106 µM | OVCAR-5 0.0775 µM | OVCAR-8 < 0.01 µM | PC-3 < 0.0491 µM | RPMI-8226 < 0.0104 µM | RXF 393 < 0.0127 µM | SF-268 < 0.0134 µM | SF-295 < 0.01 µM | SF-539 < 0.01 µM | SK-MEL-28 0.202 µM | SK-MEL-2 0.226 µM | SK-MEL-5 < 0.0115 µM | SK-OV-3 < 0.022 µM | SN12C 0.0103 µM | SNB-19 < 0.0212 µM | SNB-75 0.029 µM | SR < 0.01 µM | SW-620 < 0.01 µM | T47D < 0.0165 µM | TK-10 0.197 µM | U-251 < 0.0109 µM | UACC-257 0.149 µM | UACC-62 < 0.0128 µM | UO-31 < 0.0148 µM

COc1cc2c(/C=C3/C(=O)N(c4ccccc4)c4ccccc43)c(Cl)[nH]c2cc1C
inactive: 786-0 3.15 µM | A498 6.46 µM | A549 3.41 µM | ACHN 3.44 µM | BT-549 2.48 µM | CAKI-1 3.89 µM | CCRF-CEM 1.71 µM | COLO 205 1.9 µM | DU-145 2.89 µM | EKVX 3.6 µM | HCC 2998 2.37 µM | HCT-116 2.95 µM | HL-60 2.31 µM | HOP-62 3.07 µM | HOP-92 4.44 µM | HT-29 3.09 µM | Hs-578T 4.56 µM | IGROV-1 2.7 µM | K562 2.84 µM | KM12 2.14 µM | LOX IMVI 2.94 µM | M14 3.18 µM | MCF7 3.01 µM | MDA-MB-231 3.21 µM | MDA-N 1.45 µM | MOLT-4 2.56 µM | Malme-3M 4.29 µM | NCI-H226 24.3 µM | NCI-H23 2.58 µM | NCI-H460 2.73 µM | NCI-H522 1.44 µM | NCI/ADR-RES 2.11 µM | OVCAR-3 1.99 µM | OVCAR-4 2.59 µM | OVCAR-5 3.45 µM | OVCAR-8 2.12 µM | PC-3 2.94 µM | RPMI-8226 1.34 µM | RXF 393 4.29 µM | SF-268 3.47 µM | SF-295 2.85 µM | SF-539 2.77 µM | SK-MEL-28 3.57 µM | SK-MEL-2 2.72 µM | SK-MEL-5 2.32 µM | SK-OV-3 1.89 µM | SN12C 2.31 µM | SNB-19 4.55 µM | SNB-75 3.71 µM | SR 3.03 µM | SW-620 2.84 µM | T47D 2.07 µM | TK-10 3.19 µM | U-251 3.24 µM | UACC-257 3.82 µM | UACC-62 2.93 µM | UO-31 2.88 µM
2.83 µM: HCT-15
active: MDA-MB-435 0.998 µM

From ChEMBL document CHEMBL1201862, “PubChem BioAssay data set” (2004)
